Assay results: patent US8795979B2, “Hydrolase enzyme substrates and uses thereof” (General Atomics, priority 2011, dated 2014)

Legend:
Assay type in all cases: biochemical
[1] = target: T1, aryl alcohol dehydrogenase (AAD) (Pseudomonas putida, UniProt P39849); experiment: Kinetic constants of AAD; settings: recombinant Pseudomonas putida AAD
T1 construct: made in house; host or cells: E. coli
T1 sequence (P39849 1-366): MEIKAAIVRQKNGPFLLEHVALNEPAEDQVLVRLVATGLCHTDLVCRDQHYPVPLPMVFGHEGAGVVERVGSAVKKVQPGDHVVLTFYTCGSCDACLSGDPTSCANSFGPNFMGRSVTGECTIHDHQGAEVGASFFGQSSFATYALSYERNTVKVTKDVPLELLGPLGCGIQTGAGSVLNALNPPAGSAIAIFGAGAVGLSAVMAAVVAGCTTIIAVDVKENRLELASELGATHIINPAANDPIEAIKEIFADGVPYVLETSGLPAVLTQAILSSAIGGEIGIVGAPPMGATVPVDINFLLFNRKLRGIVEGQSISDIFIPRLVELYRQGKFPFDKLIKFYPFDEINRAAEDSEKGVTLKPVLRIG
From the text: AAO was purified from Pleurotus eryngii using the procedures described in Guillen, F. et al., “Substrate specificity and properties of aryl-alcohol oxidase from the ligninolytic fungus Pleurotus eryngii,” Eur. J. Biochem., 209:603-611 (1992). The purification steps include concentration, anion exchange chromatography and hydrophobic interaction chromatography. DNA construct for recombinant production of Pseudomonas putida AAD was made based on the DNA sequence disclosed in Shaw, J. P. et al., Kinetic studies on benzyl alcohol dehydrogenase encoded by TOL plasmid pWW0,” J. Biol. Chem., 268:10842-10850 (1993), and the recombinant Pseudomonas putida AAD was made by overexpression in E. coli. The cycling system was combined with chemiluminescent (lumino)-hydrogen peroxide-horseradish peroxidase) reaction to form a sensitive assay.
For AAD, KNADH=9.1±2 μM; Kp-Anisyl aldehyde=6.6±0.8 μM; and kcat=30/s.

aryl alcohol oxidase = experiment: Incubation with aryl alcohol oxidase alone, H2O2 detection; settings: no beta-galactosidase
From the text: (§1) The aryl alcohol dehydrogenase used in this example was recombinantly produced based on the description in Guillen and Evans, Appl. Environmental Microbiol., 60(8):2811-17 (1994) and Reiser et al., J. Biol. Chem., 269(45):28152-28159 (1994).

beta-galactosidase = experiment: Hydrolysis by beta-galactosidase coupled with aryl alcohol oxidase, H2O2 detection; settings: 10 mM substrate, 10 unit/ml beta-galactosidase and 20 unit/ml aryl alcohol oxidase, 37° C., 30 min
From the text: as §1

Question: With NC(=O)C1=CN([C@@H]2O[C@H](COP(=O)(O)OP(=O)(O)OC[C@H]3O[C@@H](n4cnc5c(N)ncnc54)[C@H](O)[C@@H]3O)[C@@H](O)[C@H]2O)C=CC1 [NADH, reference compound] as the compound, how does the “KNADH (AAD)” value [1] read?
Answer: 9.1 ± 2 µM

Question: Which “Kp-Anisyl aldehyde (AAD)” value [1] does the source give for COc1ccc(C=O)cc1 [p-Anisyl aldehyde] here?
Answer: 6.6 ± 0.8 µM

Question: And the “kcat (AAD)” value [1]?
Answer: 30 s⁻¹

Question: With COc1ccc(CO[C@@H]2OC(CO)[C@H](O)[C@@H](O)C2O)cc1 (stereo partly drawn) [p-MOBG, p-Methoxybenzyl-β-D-Galactopyranoside] as the compound, how does the “H2O2 detected on incubation with aryl alcohol oxidase alone” value (aryl alcohol oxidase) read?
Answer: no H2O2 detected

Question: And the “generation of H2O2 (detected by peroxidase in the presence of 4-AA and TOOS at 560 nm)” value (beta-galactosidase)?
Answer: resulted in generation of H2O2
